Entries after “also recorded” stand apart in the source; their conditions may differ.
What was measured:
[1] = tested on: NR4A1 and GLUT-4 gene expression; assay: NR4A1/GLUT-4 mRNA expression in C2C12 cells; format: cell-based, murine
Excerpt: FIGS. 26A-26D graphically illustrate relative NR4A1/glucose transporter 4 (GLUT-4) mRNA expression in C2C12 cells treated with C-DIM analogs, according to embodiments of the present disclosure;
(§1) There is also evidence that NR4A1 plays a role in enhancing glucose metabolism in muscle and this is consistent with potential anti-diabetic activity for NR4A1 ligands which has previously been reported for cytosporone-derived NR4A1 ligands in mouse models. Initial studies with DIM-C-pPhOH and second generation substituted analogs used C2C12 muscle cells as a model for investigating the anti-diabetic activity of these compounds. FIGS. 25A-25D illustrate that NR4A1 is expressed in C2C12 cells and treatment with C-DIM8 (DIM-C-pPhOH) or the second generation substituted C-DIM8 analogs 3,5-dibromo-(C-DIM8-3,5-Br2), 3-chloro-(C-DIM8-3-Cl), and 3-chloro-5-methoxy-(C-DIM8-3-Cl-5-OCH3) increased expression of NR4A1 in C2C12 cells.

PFKM, PGAM2, BPGM, PYGM = assay: mRNA expression of glycolytic genes in C2C12 cells; format: cell-based, murine
Excerpt: FIGS. 28A-28E graphically illustrate relative mRNA expression of glycolytic genes in C2C12 cells treated with DIM-C-pPhOH (A), DIM-C-pPhOH-3,5-Br2 (B), DIM-C-pPhOH-3-Cl (C), and DIM-C-pPhOH-3-Cl-5-OCH3 (D) for 24 hr, or cells were transfected with NR4A1 expression plasmid (E);
Overexpression of NR4A1 in C2C12 cells induces several genes involved in glycolysis including phosphofructokinase (PFKM), phosphoglycerate mutase 2 (PGAM2), bisphosphoglycerated mutase (BPGM), and glycogen phosphorylase M (PYGM).

NR4A1 LBD = target: T1, NR4A1 LBD (Homo sapiens, UniProt P22736); assay: Surface plasmon resonance binding, immobilized NR4A1 LBD; conditions: 5 or 10 μM ligand, 25° C., Biacore 3000, CM5 chip
T1 construct: Purified NR4A1 and NR4A2 LBD proteins were covalently immobilized
T1 sequence (P22736 360-595 limits assumed, species assumed): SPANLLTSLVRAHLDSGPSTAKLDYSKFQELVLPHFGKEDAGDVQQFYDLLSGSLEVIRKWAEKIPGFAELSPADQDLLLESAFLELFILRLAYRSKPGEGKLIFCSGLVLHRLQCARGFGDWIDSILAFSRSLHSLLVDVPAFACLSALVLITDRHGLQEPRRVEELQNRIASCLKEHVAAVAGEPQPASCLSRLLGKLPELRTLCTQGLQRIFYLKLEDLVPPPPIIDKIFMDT
Procedure: (§2) Binding experiments were performed using the SPR method at 25° C. on Biacore 3000 system (GE Healthcare). Purified NR4A1 and NR4A2 LBD proteins were covalently immobilized on CM5 sensor chip (GE) using an amine coupling procedure. Alternatively, the more expensive his-tag-binding NTA sensor chip (GE) can be used to insure correct protein surface orientation. SPR response curves (sensorgrams) were generated after ligand injection using 5 or 10 μM DIM-C-pPhX analogs with X=Br (#2), X═OH (#8), X═CN (#10) and X═CO2Me (#14) (see FIG. 22).

NR4A2 LBD = target: T2, NR4A2 LBD (Homo sapiens, UniProt P43354); assay: Surface plasmon resonance binding, immobilized NR4A2 LBD; conditions: 5 or 10 μM ligand, 25° C., Biacore 3000, CM5 chip
T2 construct: Purified NR4A1 and NR4A2 LBD proteins were covalently immobilized
T2 sequence (P43354 360-595 limits assumed, species assumed): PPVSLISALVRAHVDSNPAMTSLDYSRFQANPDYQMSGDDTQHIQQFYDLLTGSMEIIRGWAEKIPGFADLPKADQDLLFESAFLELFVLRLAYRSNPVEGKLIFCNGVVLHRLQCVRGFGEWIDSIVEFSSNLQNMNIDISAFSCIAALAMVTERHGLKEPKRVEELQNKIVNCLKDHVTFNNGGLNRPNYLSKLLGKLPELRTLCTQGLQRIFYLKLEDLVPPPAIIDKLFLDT
Procedure: as §2

[2] = tested on: human MDA-MB-231 breast cancer cells; assay: Orthotopic breast tumor growth in athymic nude mice; format: in vivo, mouse; conditions: for tumor growth: 10 mg/kg/day, athymic nude mice, orthotopic model; for ED50 values for tumor growth inhibition: expected from the 10 mg/kg/day result
Procedure: FIGS. 12A-12C graphically illustrate mammary tumor volume in an athymic nude mouse xenograft model using human MDA-MB-231 breast cancer cells treated with 4-hydroxy C-DIM analogs (10 mg/kg/day) (black) relative to a control (gray), according to embodiments of the present disclosure;

NR4A1, Rab4, AMPK = assay: Western blots of whole cell lysates of C2C12 muscle cells; format: cell-based, murine; conditions: western blot
Excerpt: FIGS. 25A-25D are images of western blots of whole cell lysates of C2C12 cells treated with C-DIM analogs, according to embodiments of the present disclosure;
as §1

[3] = Blood glucose in C57BL/6 mice on a high-fat diet; format: in vivo, mouse
GAL4-NR4A2 = assay: GAL4-NR4A2/UAS-Luc transactivation (luciferase) in Panc1 cells; format: cell-based
Excerpt: (§3) FIG. 2 graphically illustrates luciferase activity in Panc1 cells transfected with GAL4-NR4A1 and GAL4-NR4A2 and UAS-Luc (GAL4-binding luciferase construct) treated with 4-, 3- and 2-hydroxy C-DIM analogs according to embodiments of the present disclosure;
FIG. 13 graphically illustrates luciferase activity in Panc1 cells transfected with GAL4-NR4A2 and UAS-Luc treated with 3-hydroxy C-DIM analogs, according to embodiments of the present disclosure;
FIG. 15 graphically illustrates luciferase activity in Panc1 cells transfected with GAL4-NR4A2 and UAS-Luc treated with 2-hydroxy C-DIM analogs, according to embodiments of the present disclosure;

β1-integrin and TXNDC5 = assay: Western blot down-regulation of β1-integrin and TXNDC5 in Panc1 and SKBR3 cells; format: cell-based; conditions: FIG. 3
Excerpt: FIG. 3 includes images of western blots of Panc1 (pancreatic) and SKBR3 (breast) cancer cells treated with monohydroxy C-DIM compounds, according to embodiments of the present disclosure, showing down-regulation of expression of two NR4A1-dependent factors, β1-integrin and TXNDC5;
Compared to the 4-bromo standard NR4A2 ligand, the 3- and 2-hydroxy isomers had minimal NR4A2 activity. […] The results correlate with the transactivation data.

SERPINB5 [4] = assay: SERPINB5 induction (western blot) in SKBR3 breast cancer cells; format: cell-based; conditions: for potency order for inducing SERPINB5: western blot, FIGS. 3 and 5
Excerpt: FIG. 5 includes images of western blots of SKBR3 (breast) cancer cells treated with 4-, 3- and 2-hydroxy C-DIM compounds, according to embodiments of the present disclosure, showing up-regulation of expression of SERPINB5;
In this study, the DMSO (control) value was relatively high, resulting in low induction by the 4-hydroxy compound, whereas in other experiment induction was observed due to lower basal SERPINB5 levels.

NR4A1 = NR4A1 (Homo sapiens, UniProt P22736); assay: NR4A1 binding affinity of the 4-hydroxy compound
Chain of NR4A1 (P22736 whole entry, species assumed, the tested form may be a part): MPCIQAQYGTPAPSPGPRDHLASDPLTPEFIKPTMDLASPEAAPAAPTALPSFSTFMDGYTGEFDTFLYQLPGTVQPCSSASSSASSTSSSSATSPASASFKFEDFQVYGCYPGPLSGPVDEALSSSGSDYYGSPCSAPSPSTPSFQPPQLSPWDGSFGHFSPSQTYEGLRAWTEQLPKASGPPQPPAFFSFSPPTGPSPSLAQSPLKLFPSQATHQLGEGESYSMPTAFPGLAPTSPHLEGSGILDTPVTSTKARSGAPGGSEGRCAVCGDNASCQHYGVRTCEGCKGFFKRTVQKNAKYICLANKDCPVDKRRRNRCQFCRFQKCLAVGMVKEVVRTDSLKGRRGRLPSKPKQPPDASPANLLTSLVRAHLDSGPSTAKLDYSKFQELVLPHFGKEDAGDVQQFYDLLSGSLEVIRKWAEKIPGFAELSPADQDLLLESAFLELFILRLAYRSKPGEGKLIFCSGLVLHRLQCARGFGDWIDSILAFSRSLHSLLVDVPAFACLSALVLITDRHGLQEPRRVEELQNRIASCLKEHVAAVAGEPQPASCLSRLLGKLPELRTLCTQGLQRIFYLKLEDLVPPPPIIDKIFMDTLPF

GAL4-NR4A1 = assay: GAL4-NR4A1/UAS-Luc transactivation (luciferase) in Panc1 cells; format: cell-based
Excerpt: as §3
Therefore, nine substituted 4-hydroxy analogs were synthesized to investigate their relative potencies as NR4A1 ligands and their half-lives since some of the substituents buttress the hydroxy group. Their effects on activation/inactivation of GAL4-NR4A1 and GAL4-NR4A2 in Panc1 cells were determined (see FIGS. 9 and 13).

TXNDC5 and PAX3-FOX01A = assay: Western blot of NR4A1-regulated gene products in Rh30 rhabdomyosarcoma cells; format: cell-based; conditions: 20 μM
Excerpt: FIG. […]
The effects of the 4-hydroxy reference compound and the nine analogs were compared with respect to down-regulation of two NR4A1-regulated gene products in Rh30 rhabdomyosarcoma cells, namely TXNDC5 and PAX3-FOX01A. […] The results also indicate that NR4A1-dependent transactivation assays appear to be less predictive than NR4A1-regulated gene products in determining differences in NR4A1 antagonist potencies.

SERPINB5 [5] = assay: SERPINB5 induction (western blot) in Panc1 cells; format: cell-based; conditions: 20 μM
C2C12 cells = assay: Glucose uptake in C2C12 cells; format: cell-based, murine; conditions: 15 and 20 μM
Excerpt: FIG. 27 graphically illustrates glucose uptake in C2C12 cells treated with C-DIM analogs, according to embodiments of the present disclosure;

G6Pase and PEPCK = G6Pase and PEPCK in glucose-starved HepG2 cells; format: cell-based
[6] = cited from earlier work
tumor growth = conditions: cited from earlier work
cancer cell lines = conditions: cited from earlier work
RMS xenograft tumor = assay: RMS mouse xenograft tumor growth

SMILES: CN(C)C(=N)N=C(N)N [metformin]
- NR4A1 and GLUT-4 gene expression [1]: induce
- expression of glycolytic genes PFKM, PGAM2, BPGM, PYGM (PFKM, PGAM2, BPGM, PYGM): significantly induced

SMILES: Brc1ccc(C(c2c[nH]c3ccccc23)c2c[nH]c3ccccc23)cc1 [DIM-C-pPhBr, 1,1-bis(3′-indolyl)-1-(p-bromophenyl)methane]
- SPR binding to NR4A1 (NR4A1 LBD): sticky interactions
- SPR binding to NR4A2 (NR4A2 LBD): sticky interactions

SMILES: COc1cc(C(c2c[nH]c3ccccc23)c2c[nH]c3ccccc23)cc(Cl)c1O [C-DIM8-3-Cl-5-OCH3]
- tumor growth [2]: inhibited tumor growth
- ED50 values for tumor growth inhibition [2]: low mg/kg/day or high μg/kg/day range
- expression of NR4A1 (NR4A1, Rab4, AMPK): increased
- serum glucose levels in a glucose tolerance test compared to control animals ([3]; 10 mg/kg/d): decreased
- serum glucose ([3]; 25 mg/kg/d, current study): decreased
- serum insulin levels ([3]; 25 mg/kg/d, current study): increased
- blood glucose levels ([3]; HFD C57BL/6 mice, 10 mg/kg/d in corn oil, every second day, oral gavage): significant decrease

SMILES: Oc1cccc(C(c2c[nH]c3ccccc23)c2c[nH]c3ccccc23)c1 [3-hydroxy compound]
- NR4A2 activity (GAL4-NR4A2) compared to the 4-bromo reference (GAL4-NR4A2): minimal
- potency in down-regulation of β1-integrin and TXNDC5 vs the 4-hydroxy compound (β1-integrin and TXNDC5): more potent
- potency order for inducing SERPINB5 (SERPINB5 [4]): 2-OH/3-OH>4-OH

SMILES: Oc1ccc(C(c2c[nH]c3ccccc23)c2c[nH]c3ccccc23)cc1 [DIM-C-pPhOH]
- binding to NR4A1 (NR4A1): high affinity
- SPR binding to NR4A1 (NR4A1 LBD): bound with high affinity
- concentration at which significant inhibition of GAL4-NR4A1 transactivation was observed (GAL4-NR4A1; not at 15 μM (steep dose response curve)): 22.5 µM
- decreased expression of TXNDC5 and PAX3-FOX01A (TXNDC5 and PAX3-FOX01A): 50-60%
- induction of SERPINB5 (SERPINB5 [5]): induced SERPINB5
- induction of SERPINB5 (SERPINB5 [4]; SKBR3 cells, 20 μM, DMSO control value relatively high): minimally induced
- potency order for inducing SERPINB5 (SERPINB5 [4]): 2-OH/3-OH>4-OH
- expression of NR4A1 (NR4A1, Rab4, AMPK): increased
- NR4A1 and GLUT-4 gene expression [1]: induce
- concentration of maximal induction of NR4A1 and GLUT-4 gene expression [1]: 20 µM
- glucose uptake (C2C12 cells): significantly induced
- G6Pase and PEPCK mRNA levels (G6Pase and PEPCK): inhibit
- in vivo half-life [6]: short; also recorded: very short
- serum half-life ([6]; in vivo): relatively short
- partial tumor growth inhibition (tumor growth; 30-40 mg/kg/day, previous studies): 40-50%
- doses at which tumor growth is (partially) inhibited (tumor growth; mouse, in vivo): 30 to 40 mg/kg/day
- doses at which tumor growth is only partially inhibited (tumor growth; mouse, in vivo): 40 to 50 mg/kg/day
- receptor-independent activities such as mitochondrial toxicity (cancer cell lines; cancer cell lines): minimal
- concentrations that block the pro-oncogenic pathways (cancer cell lines; cell culture): 10 to 20 µM

SMILES: Oc1ccc(C(c2c[nH]c3ccccc23)c2c[nH]c3ccccc23)cc1Cl [C-DIM8-3-Cl]
- tumor growth [2]: inhibited tumor growth
- ED50 values for tumor growth inhibition [2]: low mg/kg/day or high μg/kg/day range
- expression of NR4A1 (NR4A1, Rab4, AMPK): increased

SMILES: Oc1c(Br)cc(C(c2c[nH]c3ccccc23)c2c[nH]c3ccccc23)cc1Br [C-DIM8-3,5-Br2]
- tumor growth [2]: inhibited tumor growth
- ED50 values for tumor growth inhibition [2]: low mg/kg/day or high μg/kg/day range
- expression of NR4A1 (NR4A1, Rab4, AMPK): increased
- G6Pase and PEPCK mRNA levels (G6Pase and PEPCK): inhibit
- RMS tumor growth (RMS xenograft tumor; 0.25 mg/kg/d): tumor growth inhibition
- RMS tumor growth (RMS xenograft tumor; doses of 10.0, 7.5, 5.0 and 2.5 mg/kg/day): complete tumor growth inhibition
- toxicity (RMS xenograft tumor; in vivo study, RMS xenograft): not observed

SMILES: Oc1cccc(C(c2c[nH]c3ccccc23)c2c[nH]c3ccccc23)c1Br [2 bromo (3-hydroxy analog)]
- potency in NR4A1-dependent transactivation vs unsubstituted 3- and 4-hydroxy DIM standards (GAL4-NR4A1; substituted 3-hydroxy DIM analogs, FIG. 7): more potent

SMILES: Oc1ccccc1C(c1c[nH]c2ccccc12)c1c[nH]c2ccccc12 [2-hydroxy compound]
- NR4A2 activity (GAL4-NR4A2) compared to the 4-bromo reference (GAL4-NR4A2): minimal
- potency in down-regulation of β1-integrin and TXNDC5 vs the 4-hydroxy compound (β1-integrin and TXNDC5): more potent
- potency order for inducing SERPINB5 (SERPINB5 [4]): 2-OH/3-OH>4-OH

SMILES: Oc1ccc(C(c2c[nH]c3ccccc23)c2c[nH]c3ccccc23)cc1F [3-fluoro-4-hydroxy analog]
- potency as inhibitors of NR4A1-dependent transactivation relative to the 4-hydroxy reference compound (GAL4-NR4A1; tested at 7.5 μM and 15 μM): exception
